Experimental data as given in PMC10077475, “DG9-conjugated morpholino rescues phenotype in SMA mice by reaching the CNS via a subcutaneous administration” (JCI Insight, 2023).

Key:
[1] = tested on: severe SMA mouse model (Taiwanese model); test: Survival of severe SMA mice after a single subcutaneous injection at PD0; assay type: in vivo; details: until humane endpoint
Experimental: To examine whether DG9 peptide can increase the efficacy of PMO, we conjugated it to an 18-mer PMO with a sequence identical to nusinersen. The DG9-PMO, unconjugated PMO, and MOE were injected into SMA model mice [Cg-Tg(SMN2)2HungSmn1^tm1Hung/J; abbreviated as Smn^–/– SMN2^Tg/Tg; commonly called the Taiwanese model]. We also used an arginine-rich peptide (R6G) that is currently being explored in clinical trials for Duchenne muscular dystrophy (DMD) and used in preclinical studies for Hutchinson-Gilford progeria syndrome ([37], [38]). The benchmark control peptide R6G was conjugated to the same PMO sequence used in our study (R6G-PMO). […] We subcutaneously injected mice with the AOs or saline (nontreated, NT) administered at postnatal day 0 (PD0) at 2 doses: 40 mg/kg or 80 mg/kg. In our preliminary experiments, we also tested lower doses of 10 and 20 mg/kg (data not shown). […] The survival was recorded until a humane endpoint was reached. For the 40 mg/kg doses, the median survival was 12 days for unconjugated PMO, 15.5 days for MOE, and 17 days for R6G-PMO, which was increased to 58 days for DG9-PMO treatment (Figure 1A and Supplemental Figure 1A; supplemental material available online with this article; https://doi.org/10.1172/jci.insight.160516DS1). The median survival increased to 57 days for unconjugated PMO, 64 days for MOE, and 121 days for DG9-PMO at the higher dose of 80 mg/kg (Figure 1A). […] In spite of no statistical difference between DG9-PMO and MOE groups, the median survival of DG9-PMO still was higher than MOE, as only 1 mouse was alive until PD200 following a 40 mg/kg injection of MOE.
SMA-transgenic mice [JAX stock 005058 FVB.Cg-Tg(SMN2)2HungSmn1^tm1Hung/J] (Smn^–/–; SMN2^Tg/Tg), also known as Taiwanese mice, were purchased from Jackson Laboratory. Heterozygous mice for Smn1 (Smn1^+/–; SMN2^–/–) generated by us were crossed with mice homozygous for Smn1 Smn^–/–; SMN2^Tg/Tg generated by us to obtain the SMA mice (Smn^–/–; SMN2^Tg/–) or the heterozygous healthy control (Smn1^+/–; SMN2^Tg/–). The SMA mice display a severe overt phenotype similar to patients with SMA type I. The mice were genotyped using a PCR assay on genomic DNA isolated from tail biopsies using the Phire Tissue Direct PCR Kit (Thermo Fisher Scientific) as per the manufacturer’s instructions. The DNA was amplified using the primers described in Supplemental Table 1 using the condition Mouse Smn: 98°C/5 minutes → 98°C/5 s 58°C/10 s 72°C/10 s × 35 cycles → 72°C/1 minute.
Injections were carried out using a 30-gauge Hamilton syringe. SMA mice identified following genotyping were randomly assigned to a treatment group. The researcher injecting mice was blinded to the treatment. SMA neonates were subcutaneously injected with 40 or 80 mg/kg of AOs at PD0, while NT and heterozygous control mice were injected with saline (n = 10–49) per group. Tissues including the quadriceps muscle, liver, kidney, spleen, diaphragm, intercostal muscle, heart, brain, and spinal cord were collected and snap-frozen in dry ice– cooled isopentane, then subsequently stored at –80°C.

[2] = Toxicology: serum markers, urinary KIM-1, liver and kidney histology; assay type: in vivo, mouse
Experimental: To further elucidate the possibility of long-term toxicity, we collected serum from the Hets and AO-treated mice at PD30–PD35. A toxicological evaluation was performed on the levels of alkaline phosphatase (ALP), alanine transaminase (ALT), aspartate aminotransferase (AST), creatine kinase (CK), creatinine, total bilirubin, total protein, albumin, globulin, and gamma-glutamyl transferase (GGT). […] We also performed a qualitative histological analysis of the liver and kidney and found no signs of observable toxicity (Supplemental Figure 9D). We also analyzed levels of urinary kidney injury marker-1 (KIM-1) following DG9-PMO treatment at both 40 and 80 mg/kg.
Blood was collected from the mice around PD30–PD40 (n = 4–10 per group) during the dissection procedure. The blood was left at RT for 30 minutes and centrifuged at 2,000 rcf. The resulting supernatant (serum) was transferred to a new 1.5 mL tube and stored at –20 °C. The serum samples were analyzed by IDEXX BioAnalytics. The evaluation was performed on a standard set of toxicity markers: glucose, total bilirubin, blood urea nitrogen, CK, creatinine, ALP, ALT, AST, GGT, globulin, albumin, and total protein. Urinary KIM-1 analysis was performed from urine collected from mice at PD30. The collected urine was centrifuged at 2,000 rcf at 4°C. […]

[3] = single subcutaneous injection at PD0, 40 mg/kg
[4] = single subcutaneous injection at PD0, 80 mg/kg

For `CC(=O)N[C@@H](Cc1ccc(O)cc1)C(=O)N[C@@H](C)C(=O)N[C@H](CCCNC(=N)N)C(=O)N[C@H](C(=O)N[C@@H](CCCNC(=N)N)C(=O)N[C@@H](CCCNC(=N)N)C(=O)N[C@H](CCCNC(=N)N)C(=O)NCC(=O)N1CCC[C@H]1C(=O)N[C@@H](CCCNC(=N)N)C(=O)NCC(=O)N[C@@H](Cc1ccc(O)cc1)C(=O)N[C@@H](C)C(=O)N[C@H](CCCNC(=N)N)C(=O)N[C@H](C(=O)N[C@@H](CCCNC(=N)N)C(=O)N[C@@H](CCCNC(=N)N)C(=O)N[C@H](CCCNC(=N)N)C(=O)NCC(=O)N1CCC[C@H]1C(=O)N[C@@H](CCCNC(=N)N)C(=O)N[C@H](CCCNC(=N)N)C(=O)N1C[C@@H](COP(=O)(N(C)C)N2C[C@@H](COP(=O)(N(C)C)N3C[C@@H](COP(=O)(N(C)C)N4C[C@@H](COP(=O)(N(C)C)N5C[C@@H](COP(=O)(N(C)C)N6C[C@@H](COP(=O)(N(C)C)N7C[C@@H](COP(=O)(N(C)C)N8C[C@@H](COP(=O)(N(C)C)N9C[C@@H](COP(=O)(N(C)C)N%10C[C@@H](COP(=O)(N(C)C)N%11C[C@@H](COP(=O)(N(C)C)N%12C[C@@H](COP(=O)(N(C)C)N%13C[C@@H](COP(=O)(N(C)C)N%14C[C@@H](COP(=O)(N(C)C)N%15C[C@@H](COP(=O)(N(C)C)N%16C[C@@H](COP(=O)(N(C)C)N%17C[C@@H](COP(=O)(N(C)C)N%18C[C@@H](COP(=O)(N(C)C)N%19CCC(C(N)=O)CC%19)O[C@@H](n%19cc(C)c(=O)[nH]c%19=O)C%18)O[C@@H](n%18ccc(N)nc%18=O)C%17)O[C@@H](n%17cnc%18c(N)ncnc%18%17)C%16)O[C@@H](n%16ccc(N)nc%16=O)C%15)O[C@@H](n%15cc(C)c(=O)[nH]c%15=O)C%14)O[C@@H](n%14cc(C)c(=O)[nH]c%14=O)C%13)O[C@@H](n%13cc(C)c(=O)[nH]c%13=O)C%12)O[C@@H](n%12ccc(N)nc%12=O)C%11)O[C@@H](n%11cnc%12c(N)ncnc%12%11)C%10)O[C@@H](n%10cc(C)c(=O)[nH]c%10=O)C9)O[C@@H](n9cnc%10c(N)ncnc%109)C8)O[C@@H](n8cnc9c(N)ncnc98)C7)O[C@@H](n7cc(C)c(=O)[nH]c7=O)C6)O[C@@H](n6cnc7c(=O)[nH]c(N)nc76)C5)O[C@@H](n5ccc(N)nc5=O)C4)O[C@@H](n4cc(C)c(=O)[nH]c4=O)C3)O[C@@H](n3cnc4c(=O)[nH]c(N)nc43)C2)O[C@@H](n2cnc3c(=O)[nH]c(N)nc32)C1)C(C)C)C(C)C` (stereo partly drawn) [DG9-PMO], the median survival [1, 3] was 58 days, the median survival [1, 4] was 121 days and the “urinary kidney injury marker-1 (KIM-1) compared to the Hets” value ([2]; 40 and 80 mg/kg, urine at PD30, sandwich ELISA) was “no apparent increase”. The “toxicity on the liver and kidney” value ([2]; as high as 80 mg/kg dose) was “no apparent toxicity”.
Work on “unconjugated PMO: PMO targeting ISS-N1 intron 7 (5′ TCACTTTCATAATGCTGG 3′), purchased from Gene Tools LLC (all phosphorodiamidate morpholino (PMO)) [reference compound]” yielded a median survival [1, 3] of 12 days and a median survival [1, 4] of 57 days.
